Reference: ChEMBL document CHEMBL1201862, “PubChem BioAssay data set” (2004)
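Where inhibition never reached the appropriate level, the endpoint shown equals the highest concentration tested. Otherwise, values were interpolated linearly from a five-concentration, 48-hour dose response in 96-well plates. The concentration for 50% growth inhibition is given as GI50.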 Calls of active or inactive are those of the source. Rule as the data show it: active = GI50 up to about 1.1 µM and inactive = higher.

Assays:
Assay in all cases: inhibition of tumour cell growth, NCI panel, 48 h
[1] = tested on: A498
[2] = tested on: HCC 2998
[3] = tested on: HCT-15
[4] = tested on: IGROV-1
[5] = tested on: M14
[6] = tested on: NCI-H460
[7] = tested on: OVCAR-3
[8] = tested on: OVCAR-4
[9] = tested on: RPMI-8226
[10] = tested on: RXF 393
[11] = tested on: SF-295
[12] = tested on: SF-539
[13] = tested on: TK-10
[14] = tested on: UACC-257
[15] = tested on: UO-31
[16] = tested on: SN12C

Measured: GI50

Cc1[nH]c2ccccc2c1/C=C/c1c(C)[nH]c2ccccc12
inactive: [1] > 100 µM | [2] > 100 µM | [4] > 100 µM | [5] > 100 µM | [6] > 100 µM | [7] > 100 µM | [8] > 100 µM | [9] > 100 µM | [10] > 100 µM | [11] > 100 µM | [12] > 100 µM | [13] > 100 µM | [14] > 100 µM | [15] > 100 µM
> 100 µM: [3]

C=CCN(C)CN(C)c1nc(N(C)C)nc(N(C)C)n1
34.3 µM: [3]
inactive: [1] > 100 µM | [2] 53.2 µM | [4] > 100 µM | [5] 50.7 µM | [6] 11.8 µM | [7] 64.6 µM | [8] 79.8 µM | [9] 46.6 µM | [11] > 100 µM | [12] > 100 µM | [16] > 100 µM | [13] > 100 µM | [14] > 100 µM | [15] > 100 µM

Fc1cccc(C2SCc3nc4ccccc4n32)c1 (stereo not given)
inactive: [2] 55.7 µM | [4] 39.6 µM | [6] 39.6 µM | [7] 36.2 µM | [9] 23.5 µM | [10] > 10 µM | [11] 48.3 µM | [12] > 100 µM | [16] 50.5 µM | [13] > 10 µM | [14] 17.6 µM | [15] 33.8 µM

CN1NC(c2ccccc2)=C(C#N)C(=O)CC1c1ccccc1Cl (stereo not given)
63.4 µM: [3]
inactive: [2] > 100 µM | [5] > 100 µM | [6] > 100 µM | [8] > 100 µM | [9] > 100 µM | [10] > 100 µM | [11] > 100 µM | [16] > 100 µM | [13] > 100 µM | [14] > 100 µM

O=Cc1ccc2c(c1I)OCO2
inactive: [1] > 100 µM | [2] > 100 µM | [4] > 100 µM | [5] > 100 µM | [6] > 100 µM | [7] > 100 µM | [8] > 100 µM | [9] > 100 µM | [11] > 100 µM | [12] > 100 µM | [16] > 100 µM | [13] > 100 µM | [14] > 100 µM | [15] > 100 µM
> 100 µM: [3]

COc1ccc2c(c1)OC[C@@H]1c3cc4c(cc3O[C@H]21)OCO4
> 100 µM: [3]
inactive: [1] > 100 µM | [2] > 100 µM | [5] > 100 µM | [6] > 100 µM | [7] > 100 µM | [8] 35.7 µM | [9] > 100 µM | [10] > 100 µM | [11] > 100 µM | [12] > 100 µM | [13] > 100 µM | [15] > 100 µM

Cc1ccc2sc3cc(=O)cc(C)c-3nc2c1
40.2 µM: [3]
inactive: [2] 50.4 µM | [4] > 100 µM | [5] > 100 µM | [6] > 100 µM | [7] 57.3 µM | [8] 14.2 µM | [11] 33.1 µM | [12] 37.9 µM | [16] 60.4 µM | [13] > 100 µM | [14] 74.3 µM | [15] 26.1 µM

O=C1c2ccccc2C(=O)N1C/C=N/NS(=O)(=O)c1ccc(Br)cc1
> 100 µM: [3]
inactive: [1] > 100 µM | [2] > 100 µM | [4] > 100 µM | [5] > 100 µM | [6] > 100 µM | [7] > 100 µM | [8] > 100 µM | [9] > 100 µM | [11] > 100 µM | [12] > 100 µM | [16] > 100 µM | [13] > 100 µM | [14] > 100 µM | [15] > 100 µM

Nc1c(-c2cn(Cc3ccccc3)c3ccccc23)[n+]([O-])c2ccccc2[n+]1[O-]
27.2 µM: [3]
inactive: [1] 18.4 µM | [2] 35.8 µM | [4] 21.7 µM | [5] 25.4 µM | [6] 28.5 µM | [7] 19.8 µM | [8] 43.6 µM | [9] 24.6 µM | [11] 21.9 µM | [16] 31.8 µM | [13] 28.3 µM | [14] 12.8 µM | [15] 10.2 µM

CC(=O)OC1CCn2nnc(CO)c21 (stereo not given)
> 100 µM: [3]
inactive: [2] > 100 µM | [4] > 100 µM | [6] > 100 µM | [7] > 100 µM | [8] > 100 µM | [9] > 100 µM | [10] > 100 µM | [11] > 100 µM | [12] 58.5 µM | [16] > 100 µM | [13] > 100 µM | [14] > 100 µM | [15] > 100 µM

O=c1[nH]c(=O)n(C2OC(CO)C(N(O)Cc3ccc(F)cc3)C2O)cc1Br (stereo not given)
inactive: [1] > 100 µM | [2] > 100 µM | [4] > 100 µM | [5] > 100 µM | [6] > 100 µM | [7] > 100 µM | [8] > 100 µM | [9] > 100 µM | [10] > 100 µM | [11] > 100 µM | [12] > 100 µM | [16] > 100 µM | [13] > 100 µM | [14] > 100 µM | [15] > 100 µM

c1ccc(P(=C2c3ccccc3-c3ccccc32)(c2ccccc2)c2ccccc2)cc1
5.02 µM: [3]
inactive: [2] 3.63 µM | [4] 6.7 µM | [5] 8.34 µM | [6] 3.37 µM | [7] 2.53 µM | [8] 6.1 µM | [10] 13 µM | [11] 2.94 µM | [12] 11.5 µM | [16] 3.15 µM | [13] 7.64 µM | [14] 3.94 µM | [15] 8.87 µM

CCOC(=O)C(C)Sc1nnc(COc2ccc(Cl)cc2)n1-c1ccccc1 (stereo not given)
inactive: [2] 22.5 µM | [4] 26.8 µM | [5] 16.9 µM | [6] 17.7 µM | [7] 17.4 µM | [8] 20.6 µM | [9] 19.1 µM | [10] 22.9 µM | [11] 22 µM | [12] 21.4 µM | [16] 17.9 µM | [13] 27.5 µM | [14] 23.6 µM | [15] 14.7 µM
14.7 µM: [3]

CCOC(=O)Cn1c(=O)[nH]c(=O)c2[nH]cnc21
inactive: [1] > 100 µM | [2] > 100 µM | [4] > 100 µM | [5] > 100 µM | [6] > 100 µM | [7] > 100 µM | [8] > 100 µM | [10] > 100 µM | [12] > 100 µM | [16] > 100 µM | [13] > 100 µM | [14] > 100 µM | [15] > 100 µM
> 100 µM: [3]

COC(=O)CC(=O)OC1C[C@@H]2CCC3C(C)(C)CCC[C@]3(C)C23CC[C@@]1(C)C3 (stereo not given in full)
inactive: [2] 19.8 µM | [4] 16.9 µM | [5] 18 µM | [6] 19.8 µM | [7] 16.9 µM | [8] 16.9 µM | [9] 45.9 µM | [10] 18.9 µM | [11] 19.2 µM | [12] 19.6 µM | [16] 17.5 µM | [13] 19.1 µM | [14] 19.1 µM | [15] 19.4 µM
19.9 µM: [3]
